pEC50, pIC50: −log10 of the molar value. Where two headings read alike, the source gives them in different places.
Key:
PARP11 = PARP11 (Homo sapiens (Human), UniProt Q9NR21); test: PASTA biochemical PARP screening assay, PARP11
PARP6 = PARP6 (Homo sapiens (Human), UniProt Q2NL67); test: PASTA biochemical PARP screening assay, PARP6
PARP10 = PARP10 (Homo sapiens (Human), UniProt Q53GL7); test: PASTA biochemical PARP screening assay, PARP10
PARP1 = PARP1 (Homo sapiens (Human), UniProt P09874); test: PASTA biochemical PARP screening assay, PARP1
[1] = tested on: CT26 (mouse colon adenocarcinoma) cells; test: Cell proliferation assay (CellTiter-Glo), CT26; type: cell-based; conditions: Mus musculus, CT26, 144 h, 6 days
PARP2 [2] = target: T1, PARP2 (Homo sapiens (Human), UniProt Q9UGN5); test: PARP2 biochemical assay; conditions: read-out: PARP2 IC50
[3] = tested on: NCI-H1373 (human lung adenocarcinoma) cells; test: Cell proliferation assay (CellTiter-Glo), NCI-H1373; type: cell-based; conditions: Homo sapiens, NCI-H1373, 144 h; 6 days, CellTiter-Glo; read-out: NCI-H1373 GI50
AHR target gene CYP1A1 = test: CYP1A1 mRNA (AHR target gene) by RT-qPCR in MEFs; type: cell-based, mouse; conditions: WT MEFs
PARP12cat = PARP12cat (Homo sapiens (Human), UniProt Q9H0J9); test: PASTA biochemical PARP screening assay, PARP12cat
GST-tagged PARP7 = GST-tagged PARP7 (Homo sapiens (Human), UniProt Q7Z3E1); test: PASTA biochemical PARP screening assay, PARP7
Description: GST-tagged PARP7 was expressed and purified as previously described (Hutin et al., 2018). Proteins were quantified by an in-gel standard curve of Bovine Serum Albumin (Bio-Rad). For PARP7, 250 ng of PARP7 was adhered to glutathione coated 96-well plates (Thermo Scientific) in PBR for 60 min at RT. […] After washing, varying concentrations of each inhibitor was pre-incubated with 20 μM (2×) 6-a-NAD^+. The solution was added to the plate, diluted to 1× in PBR, and incubated at 30° C. for 60 min. […] The plate was subsequently washed three times in PBST and once in PBS before incubation with Strep-HRP (300 ng/μl BSA, 0.05 ng/μl Strep-HRP (Jackson ImmunoResearch), 1×PBS) for 30 min at RT. The plate was washed three time in PBST and once in PBS before development with QuantaRed Enhanced Chemifluorescent HRP Substrate as described previously.

GFP-PARP7 = GFP-PARP7 (Homo sapiens (Human), UniProt Q7Z3E1); test: PARP7 MARylation in GFP-PARP7 expressing HEK 293T cells (western blot); type: cell-based; conditions: read-out: EC50, decrease in PARP7 MARylation
IFN-β mRNA = IFN-β mRNA by RT-qPCR in MEFs; type: cell-based, mouse; conditions: 100 nM alone
PARP3 = PARP3 (Homo sapiens (Human), UniProt Q9Y6F1); test: PASTA biochemical PARP screening assay, PARP3
Description: For PARP3, PARP4bc, and PARP16, 200-350 ng of PARP was directly adhered to nickel coated 96-well plates for 60 min at 25° C. in PBR PARP3 was activated by Dnick 5'P as previously described (Langelier, Marie-France et al. Nucleic acids research vol. 42, 12 (2014): 7762-75.). The plate was washed three times with PBST, once with PBS, and once with PBR. Varying concentrations of inhibitor were pre-incubated with NAD^+ and added to the plate (final NAD^+ concentration: 100 μM for PARP3, PARP4bc; 400 μM for PARP16). The plate was incubated at 30° C. for 60 min, then washed three times with PBST before blocking with 5% Milk in PBST. […] The plate was then washed three times with PBST and once with PBS before developing as described previously.

PARP14wwe = PARP14wwe (Homo sapiens, UniProt Q460N5); test: PASTA biochemical PARP screening assay, PARP14wwe
PARP15cat = PARP15cat (Homo sapiens (Human), UniProt Q460N3); test: PASTA biochemical PARP screening assay, PARP15cat
NCI-H1373 cells = test: Cell Titer-Glo viability, NCI-H1373; type: cell-based
Description: NCI-H1373 cells were seeded in a white 96-well plate (Corning) at a density of 1,000 cells per well. After 24 hours, cells were treated with PARP7 inhibitors and incubated at 37° C. for 6 days. Cell viability was assessed using CellTiter-Glo (CTG) 2.0 (Promega). After addition of the CTG reagent (following manufacturer protocol), the plate was incubated on an orbital shaker for 15 min (protected from light) at room temperature. Chemiluminescence was measured on a Spectra Max i3 (Molecular Devices), normalized to DMSO-treated wells, and IC50 values were calculated by non-linear regression (three-parameter fit) analysis using Prism 9 (GraphPad).

PARP2 [4] = target: T1, PARP2; test: PASTA biochemical PARP screening assay, PARP2
PARP8 = PARP8 (Homo sapiens (Human), UniProt Q8N3A8); test: PASTA biochemical PARP screening assay, PARP8
PARP16 = PARP16 (Homo sapiens (Human), UniProt Q8N5Y8); test: PASTA biochemical PARP screening assay, PARP16
[5] = tested on: AHR ligand-mediated gene transcription; test: CYP1A1 mRNA by qPCR in mouse embryonic fibroblasts; type: cell-based; conditions: MEFs, with or without AHR agonist TCDD
Description: FIG. 2A provides CYP1A1 mRNA levels assessed by qPCR after treatment of wild type (WT) MEFs with increasing concentrations of Example 10 in the presence (gray bars) or absence (black bars) of the AHR agonist TCDD (1 nM). FIG. 2B provides the same as in FIG. 2A except with PARP7^−/− MEFs. FIG. 2C provides CYP1A1 mRNA levels assessed by qPCR after treatment of wild type (WT) MEFs with increasing concentrations of TCDD in the presence (gray bars) or absence (black bars) of 100 nM Example 10. FIG. 2D provides the same as in FIG. 2C, except with PARP7−/− MEFs.

[6] = tested on: HARA (human lung squamous cell carcinoma) cells; test: Cell proliferation assay (CellTiter-Glo), HARA; type: cell-based; conditions: Homo sapiens, 144 h; 6 days, CellTiter-Glo; read-out: HARA GI50
PARP4bc = PARP4bc (Homo sapiens, UniProt Q9UKK3); test: PASTA biochemical PARP screening assay, PARP4bc

Sequence of GST-tagged PARP7 (Q7Z3E1 whole entry): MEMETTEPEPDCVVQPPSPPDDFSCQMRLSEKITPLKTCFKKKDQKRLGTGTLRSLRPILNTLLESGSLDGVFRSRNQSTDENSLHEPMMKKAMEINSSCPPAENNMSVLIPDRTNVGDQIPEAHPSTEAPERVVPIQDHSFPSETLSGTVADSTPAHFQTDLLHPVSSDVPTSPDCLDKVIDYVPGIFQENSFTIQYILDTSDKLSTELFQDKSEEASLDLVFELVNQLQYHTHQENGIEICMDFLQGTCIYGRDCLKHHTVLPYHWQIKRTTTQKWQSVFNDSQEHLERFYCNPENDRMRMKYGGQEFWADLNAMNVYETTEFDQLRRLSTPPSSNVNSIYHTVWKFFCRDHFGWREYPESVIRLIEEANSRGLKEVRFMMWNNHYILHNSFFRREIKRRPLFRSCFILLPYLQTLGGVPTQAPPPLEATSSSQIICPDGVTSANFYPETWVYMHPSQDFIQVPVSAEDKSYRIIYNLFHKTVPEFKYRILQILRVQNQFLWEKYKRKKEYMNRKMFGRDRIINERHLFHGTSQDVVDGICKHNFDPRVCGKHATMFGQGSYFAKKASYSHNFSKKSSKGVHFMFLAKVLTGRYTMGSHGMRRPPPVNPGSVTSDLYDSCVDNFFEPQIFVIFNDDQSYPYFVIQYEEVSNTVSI
Sequence of PARP1 (P09874 whole entry, species assumed): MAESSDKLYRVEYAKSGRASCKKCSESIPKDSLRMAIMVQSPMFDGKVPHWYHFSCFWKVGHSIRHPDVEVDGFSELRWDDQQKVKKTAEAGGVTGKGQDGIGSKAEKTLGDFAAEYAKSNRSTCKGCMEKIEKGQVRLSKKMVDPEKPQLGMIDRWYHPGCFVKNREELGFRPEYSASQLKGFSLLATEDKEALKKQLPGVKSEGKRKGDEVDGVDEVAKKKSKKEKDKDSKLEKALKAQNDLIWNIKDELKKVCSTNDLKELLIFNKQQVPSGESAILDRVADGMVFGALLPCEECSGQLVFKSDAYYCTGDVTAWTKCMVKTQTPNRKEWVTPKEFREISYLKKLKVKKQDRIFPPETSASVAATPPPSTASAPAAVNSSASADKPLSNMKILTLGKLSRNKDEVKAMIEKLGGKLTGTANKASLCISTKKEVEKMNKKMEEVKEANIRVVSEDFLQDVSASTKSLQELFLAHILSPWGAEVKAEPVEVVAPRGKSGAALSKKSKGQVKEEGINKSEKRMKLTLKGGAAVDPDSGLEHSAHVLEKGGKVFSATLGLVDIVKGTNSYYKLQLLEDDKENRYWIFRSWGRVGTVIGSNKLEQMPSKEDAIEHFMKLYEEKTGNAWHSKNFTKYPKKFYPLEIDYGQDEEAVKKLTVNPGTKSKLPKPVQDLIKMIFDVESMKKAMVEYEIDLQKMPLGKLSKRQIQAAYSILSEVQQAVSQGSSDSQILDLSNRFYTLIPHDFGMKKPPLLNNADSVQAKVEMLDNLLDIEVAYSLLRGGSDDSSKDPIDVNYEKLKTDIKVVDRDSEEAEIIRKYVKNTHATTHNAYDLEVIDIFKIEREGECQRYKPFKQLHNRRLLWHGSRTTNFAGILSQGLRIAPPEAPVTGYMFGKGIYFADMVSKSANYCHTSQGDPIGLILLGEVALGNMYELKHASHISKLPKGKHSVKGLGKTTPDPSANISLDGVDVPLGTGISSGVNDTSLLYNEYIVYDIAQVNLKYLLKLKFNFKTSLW
T1 sequence (Q9UGN5 whole entry): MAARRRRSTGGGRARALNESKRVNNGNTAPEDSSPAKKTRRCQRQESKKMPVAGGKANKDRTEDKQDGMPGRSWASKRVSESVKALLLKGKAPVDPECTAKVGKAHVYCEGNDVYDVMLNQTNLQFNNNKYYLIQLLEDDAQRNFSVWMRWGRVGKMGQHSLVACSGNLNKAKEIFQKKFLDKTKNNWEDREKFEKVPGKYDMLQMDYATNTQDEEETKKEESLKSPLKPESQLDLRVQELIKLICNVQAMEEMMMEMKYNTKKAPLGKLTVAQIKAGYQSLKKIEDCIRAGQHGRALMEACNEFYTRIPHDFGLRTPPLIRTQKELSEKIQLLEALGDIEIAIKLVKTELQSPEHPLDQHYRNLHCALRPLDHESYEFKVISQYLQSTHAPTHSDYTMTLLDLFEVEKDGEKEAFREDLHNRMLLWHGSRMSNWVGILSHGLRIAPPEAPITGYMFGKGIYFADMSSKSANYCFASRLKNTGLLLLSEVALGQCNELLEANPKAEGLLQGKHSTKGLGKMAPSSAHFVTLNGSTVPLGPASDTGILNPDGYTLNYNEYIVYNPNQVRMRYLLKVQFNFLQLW
Sequence of PARP12cat (Q9H0J9 484-698): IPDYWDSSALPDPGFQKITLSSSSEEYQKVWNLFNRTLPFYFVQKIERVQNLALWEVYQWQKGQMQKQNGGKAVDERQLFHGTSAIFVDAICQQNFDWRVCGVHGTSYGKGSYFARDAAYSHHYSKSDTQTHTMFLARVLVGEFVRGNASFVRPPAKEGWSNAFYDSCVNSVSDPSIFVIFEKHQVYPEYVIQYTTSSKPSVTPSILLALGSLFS
Sequence of PARP10 (Q53GL7 whole entry, species assumed): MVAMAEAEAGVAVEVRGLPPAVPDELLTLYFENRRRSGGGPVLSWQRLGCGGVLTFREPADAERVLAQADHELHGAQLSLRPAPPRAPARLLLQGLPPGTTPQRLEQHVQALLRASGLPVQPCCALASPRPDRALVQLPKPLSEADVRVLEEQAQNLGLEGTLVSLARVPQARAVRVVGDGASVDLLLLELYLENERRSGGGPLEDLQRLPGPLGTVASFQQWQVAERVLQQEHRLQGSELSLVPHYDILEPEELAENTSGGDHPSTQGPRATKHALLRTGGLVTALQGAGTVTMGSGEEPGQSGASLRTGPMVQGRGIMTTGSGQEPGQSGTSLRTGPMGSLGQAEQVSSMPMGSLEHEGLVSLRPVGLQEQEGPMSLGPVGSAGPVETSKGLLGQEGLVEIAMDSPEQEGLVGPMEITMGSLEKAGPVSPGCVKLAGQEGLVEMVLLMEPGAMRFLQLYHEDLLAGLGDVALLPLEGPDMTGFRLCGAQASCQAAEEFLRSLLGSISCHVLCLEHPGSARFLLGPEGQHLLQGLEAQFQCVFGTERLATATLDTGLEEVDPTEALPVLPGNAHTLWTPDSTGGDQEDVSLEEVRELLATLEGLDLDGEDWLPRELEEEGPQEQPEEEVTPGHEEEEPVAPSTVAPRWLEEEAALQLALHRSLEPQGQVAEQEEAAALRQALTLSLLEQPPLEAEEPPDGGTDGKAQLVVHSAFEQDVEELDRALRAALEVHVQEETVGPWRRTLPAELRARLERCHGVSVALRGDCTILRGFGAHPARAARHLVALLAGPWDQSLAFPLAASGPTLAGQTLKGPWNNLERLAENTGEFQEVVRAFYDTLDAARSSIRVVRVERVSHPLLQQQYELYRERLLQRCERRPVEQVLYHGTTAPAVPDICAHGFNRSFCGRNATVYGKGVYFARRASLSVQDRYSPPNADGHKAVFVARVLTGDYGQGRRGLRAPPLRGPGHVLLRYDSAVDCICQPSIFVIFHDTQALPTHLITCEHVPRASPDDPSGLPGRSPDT
Sequence of PARP6 (Q2NL67 whole entry, species assumed): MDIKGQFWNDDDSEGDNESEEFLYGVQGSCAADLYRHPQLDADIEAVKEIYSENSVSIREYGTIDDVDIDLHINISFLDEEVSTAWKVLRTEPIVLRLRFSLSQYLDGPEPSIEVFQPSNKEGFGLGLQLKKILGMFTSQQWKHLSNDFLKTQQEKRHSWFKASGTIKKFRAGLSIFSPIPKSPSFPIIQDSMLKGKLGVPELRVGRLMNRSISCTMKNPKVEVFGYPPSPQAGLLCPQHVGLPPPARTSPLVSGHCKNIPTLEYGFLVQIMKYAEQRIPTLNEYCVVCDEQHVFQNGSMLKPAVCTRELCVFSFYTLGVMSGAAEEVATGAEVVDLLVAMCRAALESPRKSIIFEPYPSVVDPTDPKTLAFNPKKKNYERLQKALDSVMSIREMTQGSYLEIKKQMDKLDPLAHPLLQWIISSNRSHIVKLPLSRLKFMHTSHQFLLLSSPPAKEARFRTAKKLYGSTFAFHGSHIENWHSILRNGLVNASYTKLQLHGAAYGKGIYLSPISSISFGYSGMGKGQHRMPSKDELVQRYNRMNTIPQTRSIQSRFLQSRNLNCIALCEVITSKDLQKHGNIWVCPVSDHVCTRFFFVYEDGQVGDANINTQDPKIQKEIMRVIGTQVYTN
Sequence of PARP16 (Q8N5Y8 whole entry, species assumed): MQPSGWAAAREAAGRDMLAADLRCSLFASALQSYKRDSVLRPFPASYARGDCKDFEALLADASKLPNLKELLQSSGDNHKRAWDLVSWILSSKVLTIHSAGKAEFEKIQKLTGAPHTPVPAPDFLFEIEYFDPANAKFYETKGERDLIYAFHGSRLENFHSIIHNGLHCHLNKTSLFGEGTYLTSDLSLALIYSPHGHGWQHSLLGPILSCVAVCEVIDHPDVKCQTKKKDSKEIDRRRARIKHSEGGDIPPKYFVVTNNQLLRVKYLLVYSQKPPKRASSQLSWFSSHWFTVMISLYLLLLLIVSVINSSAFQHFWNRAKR
Sequence of GFP-PARP7 (Q7Z3E1 whole entry): as the sequence (Q7Z3E1 whole entry) above
Sequence of PARP15cat (Q460N3 482-678): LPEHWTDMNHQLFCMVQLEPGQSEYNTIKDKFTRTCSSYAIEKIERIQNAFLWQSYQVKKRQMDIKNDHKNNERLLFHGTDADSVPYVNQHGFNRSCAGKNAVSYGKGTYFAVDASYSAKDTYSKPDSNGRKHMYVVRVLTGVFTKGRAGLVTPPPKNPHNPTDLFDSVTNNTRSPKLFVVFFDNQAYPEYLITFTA

What does the source list for `CC#Cc1ccc2c(=O)[nH]nc(Cc3ccc(F)c(C(=O)N4CCN(c5ccc(C#N)cn5)CC4)c3)c2c1` [Example 10, 6-(4-(2-Fluoro-5-((4-oxo-7-(prop-1-ynyl)-3,4-dihydrophthalazin-1-yl)methyl)benzoyl)piperazin-1-yl)nicotinonitrile]?
pIC50 (PARP11): 6.87; pIC50 (PARP6): 6.11; pIC50 (PARP10): 6.75; pIC50 (PARP1; read-out: IC50 PARP1): < 5.52; pIC50 (PARP1; read-out: does not inhibit PARP1 up to): < 5.52; GI50 [1]: > 5000 nM; pIC50 (PARP2 [2]): 6.30 to 7.00; GI50 [3]: < 100 nM; CYP1A1 mRNA levels (AHR target gene CYP1A1; in the absence of TCDD): had no effect on CYP1A1 mRNA levels; CYP1A1 mRNA levels (AHR target gene CYP1A1; in the presence of 1 nM TCDD): dramatically increased CYP1A1 mRNA levels; pIC50 (PARP12cat): 6.12; pIC50 (GST-tagged PARP7): 7.86; selectivity for PARP7 over PARP2 (GST-tagged PARP7): ~75 fold; selectivity for PARP7 over PARP10 and PARP11 (GST-tagged PARP7): ~10 fold; selectivity for PARP7 over most PARP family members beyond PARP1 and PARP2 (GST-tagged PARP7): > 50 fold; pEC50 (GFP-PARP7): 8.10; increase in IFN-β mRNA (IFN-β mRNA): 3 fold; pIC50 (PARP3): < 5.52; pIC50 (PARP14wwe): 5.98; pIC50 (PARP15cat): 6.11; less potent than RBN-2397 on NCI-H1373 (NCI-H1373 cells): ~6 fold; pEC50 (NCI-H1373 cells; Homo sapiens, NCI-H1373, 144 h, 6 days, CellTiter-Glo): 6.98; pIC50 (PARP2 [4]): 5.99; pIC50 (PARP8): < 5.52; pIC50 (PARP16): 5.98; AHR ligand-mediated gene transcription (CYP1A1 mRNA) [5]: derepresses AHR ligand-mediated gene transcription; GI50 [6]: 1000 to 5000 nM; pIC50 (PARP4bc): < 5.52
